Reference: US20130267551A1, “SUBSTITUTED HYDROGENATED THIENO-PYRROLO[3,2-C]PYRIDINE, LIGANDS, A PHARMACEUTICAL COMPOSITION AND A METHOD FOR USING THE ABOVE” (ALLA CHEM, LLC, priority 2010, published 2013)
Structures can show the parent of a compound that is named as a salt.

What was measured:
Adrenergic α1A = experiment: competitive radioligand binding, Adrenergic α1A; details: compound concentration of 1 μM
Experimental: (§1) Profiles of pharmacological activity of thieno-pyrrolo[3,2-c]pyridines of the general formula 1. Biological activity test of compounds of the general formula 1 was carried out in the setting of competitive radioligand binding [I. Okun, S. Tkachenko, A. Khvat, et al., Current Alzheimer Research, 7(2), 97-112 (2010)], using a wide range of therapeutic targets including G-protein coupled receptors (GPCR), ion channels and neuromediator transporters. The tested activity was determined by quantitative measurement of radio-labelled ligand displacement by tested compounds of the general formula 1 at their concentration of 1 μM.

Adrenergic α1B = experiment: competitive radioligand binding, Adrenergic α1B; details: compound concentration of 1 μM
Experimental: as §1

Adrenergic α1D = biological target: T1, Adrenergic α1D (Homo sapiens, UniProt P25100); experiment: competitive radioligand binding, Adrenergic α1D; details: compound concentration of 1 μM
T1 sequence (P25100 1-572): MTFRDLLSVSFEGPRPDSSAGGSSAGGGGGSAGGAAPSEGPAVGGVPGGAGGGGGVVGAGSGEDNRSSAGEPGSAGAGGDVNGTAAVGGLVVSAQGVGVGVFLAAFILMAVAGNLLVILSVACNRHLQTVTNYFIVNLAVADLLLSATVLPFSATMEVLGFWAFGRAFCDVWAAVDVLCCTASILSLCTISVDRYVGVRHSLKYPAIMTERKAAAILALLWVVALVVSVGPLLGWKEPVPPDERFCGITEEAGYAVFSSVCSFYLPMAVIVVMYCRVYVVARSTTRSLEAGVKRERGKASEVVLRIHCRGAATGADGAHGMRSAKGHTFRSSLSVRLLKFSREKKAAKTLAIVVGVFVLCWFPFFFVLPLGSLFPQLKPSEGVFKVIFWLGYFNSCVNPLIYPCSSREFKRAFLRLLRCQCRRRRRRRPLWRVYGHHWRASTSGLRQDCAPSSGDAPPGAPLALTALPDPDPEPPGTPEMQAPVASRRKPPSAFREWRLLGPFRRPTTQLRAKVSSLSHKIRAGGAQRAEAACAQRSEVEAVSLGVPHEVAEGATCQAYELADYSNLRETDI
Experimental: as §1

Adrenergic α2A = biological target: T2, Adrenergic α2A (Homo sapiens, UniProt P08913); experiment: competitive radioligand binding, Adrenergic α2A; details: compound concentration of 1 μM
T2 sequence (P08913 1-465): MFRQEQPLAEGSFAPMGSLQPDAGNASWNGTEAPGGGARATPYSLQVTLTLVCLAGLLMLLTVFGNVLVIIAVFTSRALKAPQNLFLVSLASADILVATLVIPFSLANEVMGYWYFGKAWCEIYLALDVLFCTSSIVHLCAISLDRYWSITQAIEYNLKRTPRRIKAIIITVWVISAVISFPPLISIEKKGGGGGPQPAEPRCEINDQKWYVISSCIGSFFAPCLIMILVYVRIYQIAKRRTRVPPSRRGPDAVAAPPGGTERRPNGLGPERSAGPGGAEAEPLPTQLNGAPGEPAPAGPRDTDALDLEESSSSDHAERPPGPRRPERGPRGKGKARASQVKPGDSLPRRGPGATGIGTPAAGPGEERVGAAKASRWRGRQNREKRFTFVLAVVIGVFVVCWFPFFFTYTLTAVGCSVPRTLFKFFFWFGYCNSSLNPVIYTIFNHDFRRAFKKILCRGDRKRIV
Experimental: as §1

Dopaminergic D1 = Dopaminergic D1 (Homo sapiens, UniProt P21728); experiment: competitive radioligand binding, Dopaminergic D1; details: compound concentration of 1 μM
Dopaminergic D1, sequence (P21728 whole entry): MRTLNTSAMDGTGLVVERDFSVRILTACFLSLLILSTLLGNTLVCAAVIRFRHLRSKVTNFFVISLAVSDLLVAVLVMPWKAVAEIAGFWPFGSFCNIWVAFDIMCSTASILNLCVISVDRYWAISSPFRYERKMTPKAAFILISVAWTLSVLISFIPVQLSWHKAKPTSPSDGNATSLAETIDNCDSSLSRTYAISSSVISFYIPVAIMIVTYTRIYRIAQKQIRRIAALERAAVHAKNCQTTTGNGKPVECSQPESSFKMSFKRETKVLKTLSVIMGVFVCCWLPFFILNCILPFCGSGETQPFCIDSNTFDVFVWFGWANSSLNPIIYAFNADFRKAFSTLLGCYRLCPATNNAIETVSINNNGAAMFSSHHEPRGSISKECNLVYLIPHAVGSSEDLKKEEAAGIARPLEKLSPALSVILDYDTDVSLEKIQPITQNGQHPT
Experimental: as §1

Dopaminergic D2L = Dopaminergic D2L (Homo sapiens, UniProt P14416); experiment: competitive radioligand binding, Dopaminergic D2L; details: compound concentration of 1 μM
Dopaminergic D2L, sequence (P14416 whole entry): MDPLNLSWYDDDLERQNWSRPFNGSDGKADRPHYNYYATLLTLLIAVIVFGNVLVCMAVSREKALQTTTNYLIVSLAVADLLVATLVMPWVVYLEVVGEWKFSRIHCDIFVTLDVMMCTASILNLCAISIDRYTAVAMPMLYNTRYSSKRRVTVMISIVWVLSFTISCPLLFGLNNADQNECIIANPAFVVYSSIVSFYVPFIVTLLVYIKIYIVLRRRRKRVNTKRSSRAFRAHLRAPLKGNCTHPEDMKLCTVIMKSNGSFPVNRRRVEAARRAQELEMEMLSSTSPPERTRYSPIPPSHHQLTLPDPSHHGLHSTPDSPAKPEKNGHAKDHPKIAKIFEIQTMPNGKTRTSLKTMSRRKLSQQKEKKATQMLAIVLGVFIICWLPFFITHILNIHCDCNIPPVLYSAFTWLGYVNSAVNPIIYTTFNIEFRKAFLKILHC
Experimental: as §1

Dopaminergic D2S = Dopaminergic D2S (Homo sapiens, UniProt P14416); experiment: competitive radioligand binding, Dopaminergic D2S; details: compound concentration of 1 μM
Dopaminergic D2S, sequence (P14416 1-414 isoform P14416-2): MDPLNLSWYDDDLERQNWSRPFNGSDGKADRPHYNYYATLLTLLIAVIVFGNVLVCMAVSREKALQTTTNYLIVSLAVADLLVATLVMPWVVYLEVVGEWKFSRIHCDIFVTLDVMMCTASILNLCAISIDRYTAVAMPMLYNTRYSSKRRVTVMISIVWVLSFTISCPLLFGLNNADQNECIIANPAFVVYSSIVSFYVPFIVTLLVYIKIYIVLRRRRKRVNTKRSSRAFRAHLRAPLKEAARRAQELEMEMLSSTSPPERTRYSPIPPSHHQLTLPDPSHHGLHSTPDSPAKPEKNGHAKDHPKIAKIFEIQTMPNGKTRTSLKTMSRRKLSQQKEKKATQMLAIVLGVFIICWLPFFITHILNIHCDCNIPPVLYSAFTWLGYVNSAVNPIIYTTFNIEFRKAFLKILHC
Experimental: as §1

Dopaminergic D3 = Dopaminergic D3 (Homo sapiens, UniProt P35462); experiment: competitive radioligand binding, Dopaminergic D3; details: compound concentration of 1 μM
Dopaminergic D3, sequence (P35462 whole entry): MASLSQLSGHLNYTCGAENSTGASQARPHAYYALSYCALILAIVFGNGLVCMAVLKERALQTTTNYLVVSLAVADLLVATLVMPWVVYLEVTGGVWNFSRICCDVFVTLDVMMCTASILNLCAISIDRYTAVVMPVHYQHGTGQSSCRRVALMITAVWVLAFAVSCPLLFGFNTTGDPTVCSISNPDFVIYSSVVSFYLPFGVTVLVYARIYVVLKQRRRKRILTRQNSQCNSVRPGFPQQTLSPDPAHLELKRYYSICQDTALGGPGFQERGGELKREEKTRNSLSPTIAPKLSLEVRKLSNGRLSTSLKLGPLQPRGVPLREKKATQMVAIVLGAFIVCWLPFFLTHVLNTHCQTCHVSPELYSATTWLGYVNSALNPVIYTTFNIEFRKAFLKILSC
Experimental: as §1

Dopaminergic D4.2 = biological target: T3, Dopaminergic D4.2 (Homo sapiens, UniProt P21917, DEL265-296); experiment: competitive radioligand binding, Dopaminergic D4.2; details: compound concentration of 1 μM
T3 sequence (P21917 with tags, fused parts or gaps DEL265-296): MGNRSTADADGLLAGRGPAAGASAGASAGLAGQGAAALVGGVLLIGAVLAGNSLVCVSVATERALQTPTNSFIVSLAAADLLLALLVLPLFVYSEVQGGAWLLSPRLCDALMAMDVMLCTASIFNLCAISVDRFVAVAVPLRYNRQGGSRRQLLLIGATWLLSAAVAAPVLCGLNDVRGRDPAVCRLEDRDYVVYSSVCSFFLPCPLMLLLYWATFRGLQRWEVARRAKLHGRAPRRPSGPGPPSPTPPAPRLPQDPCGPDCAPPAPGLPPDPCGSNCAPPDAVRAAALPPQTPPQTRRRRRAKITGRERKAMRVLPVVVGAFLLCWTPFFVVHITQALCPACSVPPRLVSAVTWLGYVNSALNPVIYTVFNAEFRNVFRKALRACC
Experimental: as §1

Histaminergic H1 = Histaminergic H1 (Homo sapiens, UniProt P35367); experiment: competitive radioligand binding, Histaminergic H1; details: compound concentration of 1 μM
Histaminergic H1, sequence (P35367 whole entry): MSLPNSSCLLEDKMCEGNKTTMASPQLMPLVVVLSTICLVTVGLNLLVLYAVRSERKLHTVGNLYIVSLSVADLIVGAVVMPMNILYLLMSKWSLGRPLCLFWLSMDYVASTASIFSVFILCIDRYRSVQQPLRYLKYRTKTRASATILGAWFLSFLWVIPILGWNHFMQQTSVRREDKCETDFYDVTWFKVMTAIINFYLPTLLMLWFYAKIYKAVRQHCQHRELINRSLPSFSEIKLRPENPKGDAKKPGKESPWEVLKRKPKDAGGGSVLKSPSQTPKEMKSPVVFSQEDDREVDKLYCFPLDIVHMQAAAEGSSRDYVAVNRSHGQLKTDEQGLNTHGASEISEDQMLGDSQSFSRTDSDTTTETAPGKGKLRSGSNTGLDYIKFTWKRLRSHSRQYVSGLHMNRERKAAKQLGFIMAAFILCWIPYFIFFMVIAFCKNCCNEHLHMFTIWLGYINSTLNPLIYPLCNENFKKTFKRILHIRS
Experimental: as §1

Histaminergic H2 = Histaminergic H2 (Homo sapiens, UniProt P25021); experiment: competitive radioligand binding, Histaminergic H2; details: compound concentration of 1 μM
Histaminergic H2, sequence (P25021 whole entry): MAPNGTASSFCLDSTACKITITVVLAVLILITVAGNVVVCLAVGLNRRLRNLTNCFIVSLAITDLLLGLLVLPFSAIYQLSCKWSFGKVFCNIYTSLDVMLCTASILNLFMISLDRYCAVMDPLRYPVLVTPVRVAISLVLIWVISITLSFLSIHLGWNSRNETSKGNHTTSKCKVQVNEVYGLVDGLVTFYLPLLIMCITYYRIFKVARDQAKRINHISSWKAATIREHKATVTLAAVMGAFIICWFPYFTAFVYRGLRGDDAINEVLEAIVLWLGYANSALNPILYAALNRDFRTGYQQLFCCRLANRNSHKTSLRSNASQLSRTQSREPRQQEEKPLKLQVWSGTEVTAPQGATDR
Experimental: as §1

Histaminergic H3 = Histaminergic H3 (Homo sapiens, UniProt Q9Y5N1); experiment: competitive radioligand binding, Histaminergic H3; details: compound concentration of 1 μM; in % (unit assumed)
Histaminergic H3, sequence (Q9Y5N1 whole entry): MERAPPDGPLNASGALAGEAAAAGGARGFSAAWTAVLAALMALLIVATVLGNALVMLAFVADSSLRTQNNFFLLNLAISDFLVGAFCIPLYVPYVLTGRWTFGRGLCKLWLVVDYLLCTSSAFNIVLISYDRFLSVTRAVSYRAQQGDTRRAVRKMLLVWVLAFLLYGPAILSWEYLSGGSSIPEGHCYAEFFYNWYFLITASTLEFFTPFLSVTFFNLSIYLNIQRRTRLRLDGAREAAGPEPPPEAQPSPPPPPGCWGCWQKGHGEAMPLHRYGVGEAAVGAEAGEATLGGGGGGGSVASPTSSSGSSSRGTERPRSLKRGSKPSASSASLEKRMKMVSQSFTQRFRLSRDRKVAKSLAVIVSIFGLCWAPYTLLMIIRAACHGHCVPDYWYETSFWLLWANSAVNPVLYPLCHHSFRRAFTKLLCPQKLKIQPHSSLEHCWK
Experimental: as §1

Serotoninergic 5-HT1A = biological target: T4, Serotoninergic 5-HT1A (Homo sapiens, UniProt P08908); experiment: competitive radioligand binding, Serotoninergic 5-HT1A; details: compound concentration of 1 μM
T4 sequence (P08908 1-422): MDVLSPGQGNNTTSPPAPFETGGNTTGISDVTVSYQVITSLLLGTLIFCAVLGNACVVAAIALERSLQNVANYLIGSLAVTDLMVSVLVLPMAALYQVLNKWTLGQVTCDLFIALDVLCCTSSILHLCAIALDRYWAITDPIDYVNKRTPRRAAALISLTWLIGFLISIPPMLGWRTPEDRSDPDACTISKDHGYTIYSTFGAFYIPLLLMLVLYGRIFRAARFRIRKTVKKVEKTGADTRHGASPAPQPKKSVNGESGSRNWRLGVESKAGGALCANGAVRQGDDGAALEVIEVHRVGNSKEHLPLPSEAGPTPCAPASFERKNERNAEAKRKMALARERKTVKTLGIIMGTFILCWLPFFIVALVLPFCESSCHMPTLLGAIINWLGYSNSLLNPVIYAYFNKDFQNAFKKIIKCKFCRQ
Experimental: as §1

Serotoninergic 5-HT1B = experiment: competitive radioligand binding, Serotoninergic 5-HT1B; details: compound concentration of 1 μM
Experimental: as §1

Serotoninergic 5-HT2A = Serotoninergic 5-HT2A (Homo sapiens, UniProt P28223); experiment: competitive radioligand binding, Serotoninergic 5-HT2A; details: compound concentration of 1 μM
Serotoninergic 5-HT2A, sequence (P28223 whole entry): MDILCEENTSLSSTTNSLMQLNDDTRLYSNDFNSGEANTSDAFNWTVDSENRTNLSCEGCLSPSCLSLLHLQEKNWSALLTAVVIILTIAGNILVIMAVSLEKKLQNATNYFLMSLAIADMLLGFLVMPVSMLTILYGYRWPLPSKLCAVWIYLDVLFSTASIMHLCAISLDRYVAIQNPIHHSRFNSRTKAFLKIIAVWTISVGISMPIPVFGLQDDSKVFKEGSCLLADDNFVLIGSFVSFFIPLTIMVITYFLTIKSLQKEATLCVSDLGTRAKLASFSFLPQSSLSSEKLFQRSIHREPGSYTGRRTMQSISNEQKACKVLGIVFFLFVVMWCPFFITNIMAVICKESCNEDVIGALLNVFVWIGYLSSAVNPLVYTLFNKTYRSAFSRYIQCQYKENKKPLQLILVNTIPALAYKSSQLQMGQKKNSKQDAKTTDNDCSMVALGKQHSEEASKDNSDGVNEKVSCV
Experimental: as §1

Serotoninergic 5-HT2B = Serotoninergic 5-HT2B (Homo sapiens, UniProt P41595); experiment: competitive radioligand binding, Serotoninergic 5-HT2B; details: compound concentration of 1 μM
Serotoninergic 5-HT2B, sequence (P41595 whole entry): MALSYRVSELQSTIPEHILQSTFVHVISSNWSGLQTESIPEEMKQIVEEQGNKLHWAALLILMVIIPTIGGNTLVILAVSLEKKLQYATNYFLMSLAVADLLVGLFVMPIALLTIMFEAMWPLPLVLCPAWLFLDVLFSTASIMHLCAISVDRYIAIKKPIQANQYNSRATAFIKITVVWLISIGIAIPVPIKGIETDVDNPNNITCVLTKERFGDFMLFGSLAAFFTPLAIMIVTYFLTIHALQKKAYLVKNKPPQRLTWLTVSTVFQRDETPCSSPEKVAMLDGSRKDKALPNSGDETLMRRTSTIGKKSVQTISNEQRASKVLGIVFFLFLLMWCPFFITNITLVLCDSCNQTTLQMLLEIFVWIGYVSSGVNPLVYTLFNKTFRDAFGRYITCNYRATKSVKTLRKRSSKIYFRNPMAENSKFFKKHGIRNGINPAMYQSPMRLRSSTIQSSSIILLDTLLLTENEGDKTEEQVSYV
Experimental: as §1

Serotoninergic 5-HT2C = biological target: T5, Serotoninergic 5-HT2C (Homo sapiens, UniProt P28335); experiment: competitive radioligand binding, Serotoninergic 5-HT2C; details: compound concentration of 1 μM
T5 sequence (P28335 33-458): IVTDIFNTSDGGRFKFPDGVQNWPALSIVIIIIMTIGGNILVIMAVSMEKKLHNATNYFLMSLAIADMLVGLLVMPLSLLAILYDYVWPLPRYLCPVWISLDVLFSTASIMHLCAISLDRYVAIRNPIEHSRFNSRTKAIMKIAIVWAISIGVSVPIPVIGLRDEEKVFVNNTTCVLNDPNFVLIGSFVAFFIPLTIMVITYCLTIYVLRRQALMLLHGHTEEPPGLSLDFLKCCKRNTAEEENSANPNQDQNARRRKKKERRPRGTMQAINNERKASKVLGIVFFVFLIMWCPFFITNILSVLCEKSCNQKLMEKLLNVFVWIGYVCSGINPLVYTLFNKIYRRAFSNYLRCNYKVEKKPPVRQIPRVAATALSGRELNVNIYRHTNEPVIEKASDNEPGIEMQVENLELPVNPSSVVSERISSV
Experimental: as §1

Serotoninergic 5-HT6 = Serotoninergic 5-HT6 (Homo sapiens, UniProt P50406); experiment: competitive radioligand binding, Serotoninergic 5-HT6; details: compound concentration of 1 μM
Serotoninergic 5-HT6, sequence (P50406 whole entry): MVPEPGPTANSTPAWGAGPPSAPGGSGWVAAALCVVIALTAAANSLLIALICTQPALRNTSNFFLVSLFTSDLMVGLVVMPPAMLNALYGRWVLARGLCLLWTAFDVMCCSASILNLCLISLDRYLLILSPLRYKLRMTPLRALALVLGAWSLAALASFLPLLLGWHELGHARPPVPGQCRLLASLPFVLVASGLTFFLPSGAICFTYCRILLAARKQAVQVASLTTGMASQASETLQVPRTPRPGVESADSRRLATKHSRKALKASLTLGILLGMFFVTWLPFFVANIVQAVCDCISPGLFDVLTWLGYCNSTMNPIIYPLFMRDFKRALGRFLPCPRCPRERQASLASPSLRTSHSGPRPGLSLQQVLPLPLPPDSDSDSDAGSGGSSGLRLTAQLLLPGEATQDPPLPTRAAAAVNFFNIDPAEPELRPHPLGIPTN
Experimental: as §1

Serotoninergic 5-HT7 = Serotoninergic 5-HT7 (Homo sapiens, UniProt P34969); experiment: competitive radioligand binding, Serotoninergic 5-HT7; details: compound concentration of 1 μM
Serotoninergic 5-HT7, sequence (P34969 whole entry): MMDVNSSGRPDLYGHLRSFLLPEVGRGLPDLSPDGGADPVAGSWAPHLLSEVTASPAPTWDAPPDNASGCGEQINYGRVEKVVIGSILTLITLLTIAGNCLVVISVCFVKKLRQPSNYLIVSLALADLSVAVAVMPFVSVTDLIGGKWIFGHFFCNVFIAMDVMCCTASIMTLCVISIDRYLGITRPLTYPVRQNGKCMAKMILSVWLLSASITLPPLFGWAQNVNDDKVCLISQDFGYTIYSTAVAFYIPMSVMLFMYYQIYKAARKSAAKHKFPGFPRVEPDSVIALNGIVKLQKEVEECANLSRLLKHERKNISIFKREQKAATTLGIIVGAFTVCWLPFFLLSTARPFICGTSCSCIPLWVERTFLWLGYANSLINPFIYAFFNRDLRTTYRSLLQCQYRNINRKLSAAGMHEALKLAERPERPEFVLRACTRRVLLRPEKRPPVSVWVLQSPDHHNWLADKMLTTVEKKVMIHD
Experimental: as §1

[1] = test system: Therapeutic targets (Adrenergic, Dopaminergic, Histaminergic, Serotoninergic); experiment: Profiles of pharmacological activity in competitive radioligand binding (whole panel); details: 1 μM, grades not defined
Experimental: as §1

Mice of SHK line = experiment: Prepulse inhibition of startle response in mice (Apomorphine); details: 1 mg/kg, intraperitoneally 60 minutes before the test

## Cc1ccc(CCCn2c3c(c4c(Cl)csc42)CN(C)CC3)cc1 [3.12(5)•HCl, 5-methyl-8-[(p-tolyl)propyl]-3-chloro-4,5,6,7-tetrahydro-5H-thieno[3′,2′:4,5]pyrrolo[3,2-c]pyridine]
Adrenergic α1A
  radio-labelled ligand displacement, Adrenergic α1A: 79%
Adrenergic α1B
  radio-labelled ligand displacement, Adrenergic α1B: 89%
Adrenergic α1D
  radio-labelled ligand displacement, Adrenergic α1D: 86%
Adrenergic α2A
  radio-labelled ligand displacement, Adrenergic α2A: 91%
Dopaminergic D1
  radio-labelled ligand displacement, Dopaminergic D1: 47%
Dopaminergic D2L
  radio-labelled ligand displacement, Dopaminergic D2L: 35%
Dopaminergic D2S
  radio-labelled ligand displacement, Dopaminergic D2S: 29%
Dopaminergic D3
  radio-labelled ligand displacement, Dopaminergic D3: 23%
Dopaminergic D4.2
  radio-labelled ligand displacement, Dopaminergic D4.2: 33%
Histaminergic H1
  radio-labelled ligand displacement, Histaminergic H1: 89%
Histaminergic H2
  radio-labelled ligand displacement, Histaminergic H2: 57%
Histaminergic H3
  radio-labelled ligand displacement, Histaminergic H3: −3
Serotoninergic 5-HT1A
  radio-labelled ligand displacement, Serotoninergic 5-HT1A: 18%
Serotoninergic 5-HT1B
  radio-labelled ligand displacement, Serotoninergic 5-HT1B: 30%
Serotoninergic 5-HT2A
  radio-labelled ligand displacement, Serotoninergic 5-HT2A: 97%
Serotoninergic 5-HT2B
  radio-labelled ligand displacement, Serotoninergic 5-HT2B: 63%
Serotoninergic 5-HT2C
  radio-labelled ligand displacement, Serotoninergic 5-HT2C: 94%
Serotoninergic 5-HT6
  radio-labelled ligand displacement, Serotoninergic 5-HT6: 99%
Serotoninergic 5-HT7
  radio-labelled ligand displacement, Serotoninergic 5-HT7: 96%
[1]
  grade of the activity profile (poor / satisfactory / good): good

## CN1CCc2c(c3cc(Cl)sc3n2CCCc2cccc(F)c2)C1 [3.12(6)•HCl, 5-methyl-8-[(3-fluorophenyl)propyl]-2-chloro-4,5,6,7-tetrahydro-5H-thieno[3′,2′:4,5]pyrrolo[3,2-c]pyridine]
Adrenergic α1A
  radio-labelled ligand displacement, Adrenergic α1A: 84%
Adrenergic α1B
  radio-labelled ligand displacement, Adrenergic α1B: 96%
Adrenergic α1D
  radio-labelled ligand displacement, Adrenergic α1D: 83%
Adrenergic α2A
  radio-labelled ligand displacement, Adrenergic α2A: 91%
Dopaminergic D1
  radio-labelled ligand displacement, Dopaminergic D1: 63%
Dopaminergic D2L
  radio-labelled ligand displacement, Dopaminergic D2L: 81%
Dopaminergic D2S
  radio-labelled ligand displacement, Dopaminergic D2S: 77%
Dopaminergic D3
  radio-labelled ligand displacement, Dopaminergic D3: 69%
Dopaminergic D4.2
  radio-labelled ligand displacement, Dopaminergic D4.2: 68%
Histaminergic H1
  radio-labelled ligand displacement, Histaminergic H1: 97%
Histaminergic H2
  radio-labelled ligand displacement, Histaminergic H2: 91%
Histaminergic H3
  radio-labelled ligand displacement, Histaminergic H3: −1
Serotoninergic 5-HT1A
  radio-labelled ligand displacement, Serotoninergic 5-HT1A: 50%
Serotoninergic 5-HT1B
  radio-labelled ligand displacement, Serotoninergic 5-HT1B: 43%
Serotoninergic 5-HT2A
  radio-labelled ligand displacement, Serotoninergic 5-HT2A: 97%
Serotoninergic 5-HT2B
  radio-labelled ligand displacement, Serotoninergic 5-HT2B: 91%
Serotoninergic 5-HT2C
  radio-labelled ligand displacement, Serotoninergic 5-HT2C: 98%
Serotoninergic 5-HT6
  radio-labelled ligand displacement, Serotoninergic 5-HT6: 84%
Serotoninergic 5-HT7
  radio-labelled ligand displacement, Serotoninergic 5-HT7: 95%
[1]
  grade of the activity profile (poor / satisfactory / good): good

## O=C(CCCN1CCC(O)(c2ccc(Cl)cc2)CC1)c1ccc(F)cc1 [Haloperidol, reference compound]
Mice of SHK line
  Antipsychotic activity: disturbance of prepulse inhibition of startle caused by Apomorphine: prevented disturbance of prepulse inhibition of startle caused by Apomorphine
